Data as given in patent US10604739B2, “Cardiomyocyte production” (Cellular Dynamics International, Inc., priority 2009, dated 2020).
pIC50: −log10 of the molar value. Several values for one entry are separate records, joined by “and”; a condition that tells them apart may be missing. Equal values may be shown once.

Experiments:
iPS 6.1 and iPS 6.1 MRB = test: iPS cell passaging with NaCitrate in Double Stacks; assay type: cell-based, human
Procedure: Dissociated iPS cells were rinsed with D-PBS (Dulbecco's Phosphate Buffered Saline) free of Ca^2+ and Mg^2+ and the media were aspirated. The cells were then incubated with appropriate amount (i.e., 1 mL for one well of 6-well plate, 15 mL for T-150 flask, etc) of 15 mM NaCitrate, 165 mM KCl, pH 7.3, OSM 340, at room temperature for 6-15 minutes. After incubation, the NaCitrate solution were aspirated with the cells still loosely attached. The cells were resuspended in appropriate amount of TeSR with 1 μM H1152 and distributed to Matrigel™ surfaced vessel.
For scale up production of the starting material from T150 flasks to Corning Double Stacks, and for assessment of the ability of iPS cells to be passaged as single cells/small clumps with NaCitrate, iPS 6.1 and iPS 6.1 MRB were passaged with 15 mM NaCitrate as single cells or small cell clumps into double stacks while maintaining T150 control flasks split with dispase (see FIG. 1 for experimental design). […] Cells were assessed at passage 4 and passage 7 with cardiogenesis, pluripotency panel, and karyotype. […] Aggregate images and cTnT staining for cardiomyocytes were analyzed on day 14 after splitting (FIGS. 4A-D, FIGS. 5A-C, FIGS. 6A-B, FIGS. 7A-C). Pluripotency profiles of iPS cells after passaging with NaCitrate and dispase was compared by flow cytometry using five pluripotency markers (FIGS. 8A-C). It appears safe to passage iPS cells at least four times with the NaCitrate method.
Cardiogenesis was also analyzed for those iPS cells after passaging with NaCitrate and data were compiled in FIG. 9. […] The last three “spinner” samples come from Double Stack iPS 6.1 MRB cells that were left over from various Double stack harvests. An average yield of 110e6 cells/L was obtained in 1 L spinner with cells passaged in double stacks with NaCitrate.

ROCK2 = details: ROCK1/ROCK2; cited from earlier work
[1] = system: pluripotent stem cell-derived cardiomyocytes; details: cited from earlier work
iPS6.1 cells [2] = test: iPS6.1 Growth Factor Titration #1; assay type: cell-based, human; details: hbFGF 0 or 25 ng/mL, FIGS. 29A-B
Procedure: (§1) Aggregate formation and cardiac induction procedures of those iPS cells at different initial densities were performed essentially the same as described in Examples 4 except different concentrations of human HGF (hHGF) and FGF were applied to Aggregate Formation Medium, Aggregate Transition Medium and Cardiac Induction Medium.
Conditions without FGF had virtually no surviving aggregates and no measurable cardiomyocytes (FIGS. 29A-B). On the other hand, all conditions with FGF yielded cardiomyocytes independent of HGF concentration (FIGS. 29A-B).

iPS6.1 cells [3] = test: iPS6.1 Growth Factor Titration #2; assay type: cell-based, human; details: hbFGF 3-100 ng/mL, FIGS. 30A-B
Procedure: as §1
Based on the results of the first experiment (see FIGS. 29A-B), the second iPS6.1 growth factor titration focused on the lower dose range for both FGF and HGF (FIGS. 30A-B). […] However, it is important to note that in no case did the omission of HGF lead to the failure of a condition which was otherwise successful in the presence of HGF.

iPS6.1 cells [4] = test: iPS6.1 Four Corners experiment, FGF x HGF cardiac induction; assay type: cell-based, human; details: iPS6.1 cells, 25 ng/mL FGF and/or 50 ng/mL HGF, single T25 flask, day 14; listed as FGF only
Procedure: as §1
Concurrent with the second iPS growth factor titration, a simple experiment (Table 19) was set up with iPS6.1 cells to test the 2×2 matrix of 0 and 25 ng/mL FGF and 0 and 50 ng/mL HGF. The positive concentrations of FGF and HGF were chosen based on the current best practices for iPS6.1 cells at the time and were identical to the conditions used for cardiac induction of H1 cells in both the plated and suspension processes. This experiment confirmed previous work showing the necessity of FGF for the process.

H9-TGZ cells = test: H9-TGZ Growth Factor Titration #2; assay type: cell-based, human; details: FIGS. 31A-C
Procedure: as §1
While the iPS6.1 optimization was underway, a separate series of experiments was conducted to optimize the growth factor concentrations for the H9-TGZ cells. […] Therefore, the FGF range tested was higher than that in the recent iPS6.1 experiments. This experiment confirmed that optimum cardiomyocyte production requires 100-150 ng/mL FGF with the H9-TGZ cells (FIGS. 31A-C).

For `O=C([O-])CC(O)(CC(=O)[O-])C(=O)[O-].[Na+].[Na+].[Na+]` [NaCitrate], the “Average yield of cardiomyocytes” value (iPS 6.1 and iPS 6.1 MRB; 1 L spinner, cells passaged in double stacks with NaCitrate) was 110e6 cells/L, the Doubling time (iPS 6.1 and iPS 6.1 MRB; Double Stack NaCitrate conditions, 15 mM NaCitrate) was ~30 h and the Karyotype (iPS 6.1 and iPS 6.1 MRB; cells split 4 times with NaCitrate) was “maintained a normal karyotype”.
For `COc1ccc([C@@H]2Sc3ccccc3N(CCN(C)C)C(=O)[C@@H]2OC(C)=O)cc1` [diltiazem], the Contractile activity [1] is listed as “inhibits contractile activity in a dose-dependent manner”.
In the case of `CC(C)NCC(O)c1ccc(O)c(O)c1` (centres unmarked) [isoprenaline], the Chronotropic effect [1] is given as “positive chronotropic effect”.
In the case of `CNC[C@H](O)c1cccc(O)c1` [phenylephrine], the Chronotropic effect [1] is listed as “positive chronotropic effect”.
For “FGF: human recombinant basic FGF, R&D systems”, the “Requirement for CM differentiation process” value (iPS6.1 cells [2]) was “required for the CM differentiation process to be successful”, the “FGF dose response (aggregate survival, cardiogenesis)” value (iPS6.1 cells [3]) was “too little FGF led to poor aggregate survival and high doses had survival but lacked cardiogenesis” and the “% cTNT+” value (iPS6.1 cells [4]) was 11.2% and 11.9% and 13.1%. For the same compound, the “FGF concentration required for optimum cardiomyocyte production” value (H9-TGZ cells) was 100 to 150 ng/mL.
